Experimental findings from patent US11254686B1 (Corvus Pharmaceuticals, Inc., priority 2017, dated 2022) are described below.

Holding throughout (assay type): biochemical
Test [1] addresses adenosine A2A receptor (Homo sapiens (Human), UniProt P29274). Put plainly: Adenosine receptor activity assay (Table 1), A2A activity. The following applies: read-out: Ave A2A cAMP IC50.
The target in test [2] is adenosine A1 receptor (Homo sapiens (Human), UniProt P30542). Put plainly: Adenosine receptor activity assay (Table 1), A1 cAMP. The procedure:
(§1) Table 1. Compounds (e.g., Adenosine Receptor modulators) and activity assay results. The legend is as follows: A=<10 nM; B=10-50 nM; C=50-100 nM; D=100-500; and E=>500 nM. The ratio corresponds to the A2A activity to the A2B activity; or A2A/A2B.

Test [3] has as its target adenosine A3 receptor (Homo sapiens (Human), UniProt P0DMS8). Put plainly: Adenosine receptor activity assay (Table 1), A3 cAMP. The procedure: as §1
Test [4] addresses adenosine A2B receptor (Homo sapiens (Human), UniProt P29275). Put plainly: Adenosine receptor activity assay (Table 1), A2B activity. The settings on record: for Ratio: A2A activity to the A2B activity, A2A/A2B; for IC50: read-out: Ave A2B cAMP IC50.

adenosine A2A receptor, sequence (P29274 whole entry): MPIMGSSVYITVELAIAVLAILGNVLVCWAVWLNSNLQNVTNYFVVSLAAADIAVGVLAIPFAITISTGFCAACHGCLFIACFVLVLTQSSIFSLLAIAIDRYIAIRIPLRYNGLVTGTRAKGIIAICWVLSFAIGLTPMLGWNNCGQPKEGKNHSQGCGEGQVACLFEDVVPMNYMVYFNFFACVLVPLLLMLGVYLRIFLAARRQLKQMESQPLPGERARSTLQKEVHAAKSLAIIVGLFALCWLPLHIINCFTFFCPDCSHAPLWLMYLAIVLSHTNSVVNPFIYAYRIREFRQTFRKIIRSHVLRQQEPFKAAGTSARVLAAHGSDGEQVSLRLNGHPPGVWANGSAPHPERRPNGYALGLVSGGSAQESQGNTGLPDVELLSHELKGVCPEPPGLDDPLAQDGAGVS
adenosine A3 receptor, sequence (P0DMS8 whole entry): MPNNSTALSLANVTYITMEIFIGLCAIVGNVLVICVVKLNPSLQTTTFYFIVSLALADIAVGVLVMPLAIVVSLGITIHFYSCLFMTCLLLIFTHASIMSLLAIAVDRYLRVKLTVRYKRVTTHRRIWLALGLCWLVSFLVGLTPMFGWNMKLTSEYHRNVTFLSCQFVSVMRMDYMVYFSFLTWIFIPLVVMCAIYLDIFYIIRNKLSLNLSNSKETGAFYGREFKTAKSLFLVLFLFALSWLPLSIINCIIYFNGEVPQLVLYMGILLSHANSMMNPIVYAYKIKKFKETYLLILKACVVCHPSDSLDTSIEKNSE
adenosine A1 receptor, sequence (P30542 whole entry): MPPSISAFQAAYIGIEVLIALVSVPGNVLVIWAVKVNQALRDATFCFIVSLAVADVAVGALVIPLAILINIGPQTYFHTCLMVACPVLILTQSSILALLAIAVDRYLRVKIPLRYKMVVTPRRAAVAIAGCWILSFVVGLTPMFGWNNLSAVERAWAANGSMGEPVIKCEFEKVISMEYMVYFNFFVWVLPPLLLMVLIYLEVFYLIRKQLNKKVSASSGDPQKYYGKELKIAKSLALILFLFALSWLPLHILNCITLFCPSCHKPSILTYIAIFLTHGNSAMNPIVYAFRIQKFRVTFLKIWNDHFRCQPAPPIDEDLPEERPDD
adenosine A2B receptor, sequence (P29275 whole entry): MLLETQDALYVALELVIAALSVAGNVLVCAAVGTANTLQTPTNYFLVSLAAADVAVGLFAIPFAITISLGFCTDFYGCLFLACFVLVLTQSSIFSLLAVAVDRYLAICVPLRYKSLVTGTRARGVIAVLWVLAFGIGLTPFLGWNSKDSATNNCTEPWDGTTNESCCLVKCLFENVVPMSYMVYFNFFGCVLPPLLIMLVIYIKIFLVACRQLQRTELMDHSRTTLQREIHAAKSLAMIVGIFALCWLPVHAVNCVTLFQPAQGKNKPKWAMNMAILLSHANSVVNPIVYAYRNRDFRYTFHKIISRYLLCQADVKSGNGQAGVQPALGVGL

A word on the IC50: it is the concentration that gives 50% inhibition. Turning to `COC1(C)CN(C(=O)c2nc(N[C@@H](C)c3ccccn3)nc3cc(C)sc23)C1` [Example Z483, (S)-(3-Methoxy-3-methylazetidin-1-yl)(6-methyl-2-((1-(pyridin-2-yl)ethyl)amino)thieno[3,2-d]pyrimidin-4-yl)methanone], the IC50 in test [1] was 100 to 500 nM; in test [2], greater than 500 nM; in test [3], greater than 500 nM; in test [4], 10 to 50 nM. In addition, in test [4], the Ratio is reported as 30.60.

Consider `Cc1cc2nc(N[C@@H](C)c3ccccn3)nc(C(=O)NCc3ccccn3)c2s1` [Example Z461, (S)-6-Methyl-2-((1-(pyridin-2-yl)ethyl)amino)-N-(pyridin-2-ylmethyl)thieno[3,2-d]pyrimidine-4-carboxamide], for which the IC50 in test [1] was 10 to 50 nM; in test [2] it was greater than 500 nM; in test [3], 50 to 100 nM; in test [4], 10 to 50 nM. Moreover, the Ratio in test [4] was 3.15.

Consider `Cc1cc2nc(N[C@@H](C)c3cncc(F)c3)nc(C(=O)N3CCN(C(=O)NC(C)C)C3)c2s1` [Example Z593, (S)-3-(2-((1-(5-Fluoropyridin-3-yl)ethyl)amino)-6-methylthieno[3,2-d]pyrimidine-4-carbonyl)-N-isopropylimidazolidine-1-carboxamide], for which the IC50 in test [1] was 50 to 100 nM; in test [2] it was greater than 500 nM; in test [3] it was greater than 500 nM; in test [4], 10 to 50 nM. The Ratio in test [4] was determined as 3.25.

Consider `COCCC(=O)NC1CN(C(=O)c2nc(N[C@@H](C)c3cncc(F)c3)nc3cc(C)sc23)C1` [Example Z518, (S)—N-(1-(2-((1-(5-Fluoropyridin-3-yl)ethyl)amino)-6-methylthieno[3,2-d]pyrimidine-4-carbonyl)azetidin-3-yl)-3-methoxypropanamide], for which the IC50 was 10 to 50 nM in test [1], greater than 500 nM in test [2], greater than 500 nM in test [3] and less than 10 nM in test [4]. In addition, the Ratio in test [4] worked out at 5.46.

Consider `Cc1cc2nc(N[C@@H](C)c3cncc(F)c3)nc(C(=O)N3CC(C(=O)NOC(C)(C)C)C3)c2s1` [Example Z592, (S)—N-(tert-Butoxy)-1-(2-((1-(5-fluoropyridin-3-yl)ethyl)amino)-6-methylthieno[3,2-d]pyrimidine-4-carbonyl)azetidine-3-carboxamide], for which the concentration for half-maximal inhibition (IC50) in test [1] is 50 to 100 nM; in test [2] it was greater than 500 nM; in test [3], greater than 500 nM; in test [4] it was 10 to 50 nM. The Ratio in test [4] is given as 4.67.

Turning to `COC[C@@H]1CCN(C(=O)c2nc(N[C@@H](C)c3ccccn3)nc3cc(C)sc23)C1` [Example Z467, ((R)-3-(Methoxymethyl)pyrrolidin-1-yl)(6-methyl-2-(((S)-1-(pyridin-2-yl)ethyl)amino)thieno[3,2-d]pyrimidin-4-yl)methanone], the IC50 in test [1] was 100 to 500 nM; in test [2], greater than 500 nM; in test [3], 50 to 100 nM; in test [4] it was 10 to 50 nM. Moreover, the Ratio in test [4] is given as 4.90.

In the case of `COc1ccc(CNC(=O)c2nc(N[C@@H](C)c3ccccn3)nc3cc(C)sc23)cn1` [Example Z469, (S)—N-((6-Methoxypyridin-3-yl)methyl)-6-methyl-2-((1-(pyridin-2-yl)ethyl)amino)thieno[3,2-d]pyrimidine-4-carboxamide], the IC50 is greater than 500 nM in test [1], greater than 500 nM in test [2], greater than 500 nM in test [3] and 10 to 50 nM in test [4]. Besides, the Ratio in test [4] turned out to be 36.71.

As for `Cc1cc2nc(N[C@@H](C)c3cncc(F)c3)nc(C(=O)N3CC(NC(=O)C4CC4)C3)c2s1` [Example Z522, (S)—N-(1-(2-((1-(5-Fluoropyridin-3-yl)ethyl)amino)-6-methylthieno[3,2-d]pyrimidine-4-carbonyl)azetidin-3-yl)cyclopropanecarboxamide], the IC50 in test [1] is 10 to 50 nM; in test [2], greater than 500 nM; in test [3], 100 to 500 nM; in test [4], less than 10 nM. In addition, the Ratio in test [4] worked out at 1.58.

For the compound `Cc1cc2nc(N[C@@H](C)c3cccnc3)nc(C(=O)N3CC(CO)C3)c2s1` [Example Z515, (S)-(3-(Hydroxymethyl)azetidin-1-yl)(6-methyl-2-((1-(pyridin-3-yl)ethyl)amino)thieno[3,2-d]pyrimidin-4-yl)methanone], the IC50 in test [1] is greater than 500 nM; in test [2], greater than 500 nM; in test [3], greater than 500 nM; in test [4], 10 to 50 nM. In addition, the Ratio in test [4] is reported as 53.11.

`Cc1cc2nc(N[C@@H](C)c3cncc(F)c3)nc(C(=O)N3CC(NC(=O)C(C)(C)C)C3)c2s1` [Example Z513, (S)—N-(1-(2-((1-(5-Fluoropyridin-3-yl)ethyl)amino)-6-methylthieno[3,2-d]pyrimidine-4-carbonyl)azetidin-3-yl)pivalamide]: the IC50 is less than 10 nM in test [1], 100 to 500 nM in test [2], 10 to 50 nM in test [3] and 10 to 50 nM in test [4]. In addition, the Ratio in test [4] came to 0.18.

As to “(S)—N-((6-methoxypyridin-2-yl)methyl)-6-methyl-2-((1-(pyridin-2-yl)ethyl)amino)thieno[3,2-d]pyrimidine-4-carboxamide [Example Z464]”, the IC50 in test [1] is 100 to 500 nM; in test [2], greater than 500 nM; in test [3] it was 50 to 100 nM; in test [4], less than 10 nM. Further, the Ratio in test [4] turned out to be 19.50.

For the compound `COCC1CN(C(=O)c2nc(N[C@@H](C)c3ccccn3)nc3c(C)csc23)C1` [Example Z553, (S)-(3-(methoxymethyl)azetidin-1-yl)(7-methyl-2-((1-(pyridin-2-yl)ethyl)amino)thieno[3,2-d]pyrimidin-4-yl)methanone], the IC50 in test [1] was 10 to 50 nM; in test [2], greater than 500 nM; in test [3], 100 to 500 nM; in test [4], less than 10 nM. Moreover, the Ratio in test [4] was 3.87.

For `Cc1csc2c(C(=O)NCc3ccccn3)nc(N[C@@H](C)c3ccccn3)nc12` [Example Z451, (S)-7-Methyl-2-((1-(pyridin-2-yl)ethyl)amino)-N-(pyridin-2-ylmethyl)thieno[3,2-d]pyrimidine-4-carboxamide], the IC50 in test [1] was in the range of 10 to 50 nM; in test [2], 50 to 100 nM; in test [3], 10 to 50 nM; in test [4], 10 to 50 nM. Further, the Ratio in test [4] came out at 0.35.

In the case of `C[C@H](Nc1nc(C(=O)N2CC(CNC(=O)C(C)(C)C)C2)c2sccc2n1)c1cncc(F)c1` [Example Z529, (S)—N-((1-(2-((1-(5-Fluoropyridin-3-yl)ethyl)amino)thieno[3,2-d]pyrimidine-4-carbonyl)azetidin-3-yl)methyl)pivalamide], the IC50 in test [1] was 100 to 500 nM; in test [2], greater than 500 nM; in test [3], greater than 500 nM; in test [4], 10 to 50 nM. Besides, the Ratio in test [4] is 4.15.

Turning to `Cc1cc2nc(N[C@@H](C)c3cncc(F)c3)nc(C(=O)N3CC(CNC(=O)OC(C)(C)C)C3)c2s1` [Example Z475, tert-Butyl (S)-((1-(2-((1-(5-fluoropyridin-3-yl)ethyl)amino)-6-methylthieno[3,2-d]pyrimidine-4-carbonyl)azetidin-3-yl)methyl)carbamate], the half-inhibitory concentration (IC50) in test [1] was 100 to 500 nM; in test [2], greater than 500 nM; in test [3], greater than 500 nM; in test [4] it was 10 to 50 nM. Also, in test [4], the Ratio came out at 7.45.

Take `COC[C@@H](Nc1nc(C(=O)NCCc2ccc(O)cc2)c2sccc2n1)c1cccnc1` [Example Z403, (S)—N-(4-Hydroxyphenethyl)-2-((2-methoxy-1-(pyridin-3-yl)ethyl)amino)thieno[3,2-d]pyrimidine-4-carboxamide]: the IC50 in test [1] is greater than 500 nM; in test [2], greater than 500 nM; in test [3], greater than 500 nM; in test [4] it was 10 to 50 nM. Also, the Ratio in test [4] is recorded as 42.24.

For the compound `CC(C)C(=O)NC1CN(C(=O)c2nc(N[C@@H](C)c3cncc(F)c3)nc3ccsc23)C1` [Example Z558, (S)—N-(1-(2-((1-(5-Fluoropyridin-3-yl)ethyl)amino)thieno[3,2-d]pyrimidine-4-carbonyl)azetidin-3-yl)isobutyramide], the half-inhibitory concentration (IC50) in test [1] was 10 to 50 nM; in test [2] it was greater than 500 nM; in test [3] it was greater than 500 nM; in test [4], less than 10 nM. Further, the Ratio in test [4] is on record as 3.43.

Take `CNC(=O)NCC1CN(C(=O)c2nc(N[C@@H](C)c3cncc(F)c3)nc3ccsc23)C1` [Example Z576, (S)-1-((1-(2-((1-(5-Fluoropyridin-3-yl)ethyl)amino)thieno[3,2-d]pyrimidine-4-carbonyl)azetidin-3-yl)methyl)-3-methylurea]: the IC50 in test [1] was 100 to 500 nM; in test [2], greater than 500 nM; in test [3], greater than 500 nM; in test [4] it was less than 10 nM. Further, the Ratio in test [4] was 26.03.

With `C[C@H](Nc1nc(C(=O)NCCc2cccc(O)c2)c2sccc2n1)c1ccccn1` [Example Z428, (S)—N-(3-Hydroxyphenethyl)-2-((1-(pyridin-2-yl)ethyl)amino)thieno[3,2-d]pyrimidine-4-carboxamide], the IC50 in test [1] was 100 to 500 nM; in test [2], greater than 500 nM; in test [3], greater than 500 nM; in test [4], 10 to 50 nM. Besides, the Ratio in test [4] is on record as 10.94.

In the case of `Cc1csc2c(C(=O)N3CCCC3)nc(N[C@@H](C)c3cncc(F)c3)nc12` [Example Z414, (S)-(2-((1-(5-Fluoropyridin-3-yl)ethyl)amino)-7-methylthieno[3,2-d]pyrimidin-4-yl)(pyrrolidin-1-yl)methanone], the IC50 in test [1] was 10 to 50 nM; in test [2] it was 50 to 100 nM; in test [3], 50 to 100 nM; in test [4], less than 10 nM. In test [4], the Ratio came to 19.11.
